Bounds are passed on as bounds.

Usually IC50 stands for the concentration that gives 50% inhibition. A high value points to weaker potency.

human DGAT2 (hDGAT2), sequence (Q96PD7 whole entry): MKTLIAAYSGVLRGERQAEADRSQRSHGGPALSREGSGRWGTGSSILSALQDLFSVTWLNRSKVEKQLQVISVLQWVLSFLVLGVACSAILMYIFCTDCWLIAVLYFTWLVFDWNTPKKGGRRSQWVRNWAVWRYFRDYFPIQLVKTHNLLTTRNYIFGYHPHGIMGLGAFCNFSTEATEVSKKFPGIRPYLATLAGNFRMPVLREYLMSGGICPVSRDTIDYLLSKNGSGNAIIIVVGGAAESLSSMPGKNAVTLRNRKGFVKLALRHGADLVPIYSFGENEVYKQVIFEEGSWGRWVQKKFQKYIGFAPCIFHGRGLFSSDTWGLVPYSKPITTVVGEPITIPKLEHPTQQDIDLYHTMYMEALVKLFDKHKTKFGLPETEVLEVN

The first experiment has as its target human DGAT2 (hDGAT2) (Homo sapiens (Human), UniProt Q96PD7). The experiment in a line: DGAT2 Enzymatic Activity Assay. The settings on record: hDGAT2 Sf-9 membrane prep; 13C18-triolein product by LC/MS/MS; 25 μM diolein, 5 μM 13C oleoyl-CoA. In kind it is biochemical. The procedure, abridged: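 Enzyme source was membrane fractions from Sf-9 cells infected with untagged hDGAT2 baculovirus. Reactions ran at room temperature, and product 13C18-triolein was quantified by LC/MS/MS against a 13C21-triolein internal standard. % inhibition was normalised to high and low controls, and IC50 derived from it.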
Molecule `CC1(NC(=O)[C@@H]2CCc3c(-c4cccc(OC(F)F)c4)nn(C4CCOCC4)c3C2)CS(=O)(=O)C1` [Example 23, (R)-3-(3-(difluoromethoxy)phenyl)-N-(3-methyl-1,1-dioxidothietan-3-yl)-1-(tetrahydro-2H-pyran-4-yl)-4,5,6,7-tetrahydro-1H-indazole-6-carboxamide] returned an IC50 of 169 nM.

In turn, `CC1(NC(=O)[C@@H]2CCc3c(-c4cc(OC(F)F)ccc4F)nn(C4CCCC4O)c3C2)CS(=O)(=O)C1` (single isomer, unassigned) [Example 114c] gave an IC50 of 99.9 nM.

As to `CCOc1cc(F)c(F)c(-c2nn(C(C)C)c3c2CC[C@@H](C(=O)NC2(C)CS(=O)(=O)C2)C3)c1` [Example 87, (R)-3-(5-ethoxy-2,3-difluorophenyl)-1-isopropyl-N-(3-methyl-1,1-dioxidothietan-3-yl)-4,5,6,7-tetrahydro-1H-indazole-6-carboxamide], the IC50 was determined as 3.6 nM.

In the case of `CCOc1cc(-c2nn(C(C)C(F)(F)F)c3c2CC[C@@H](C(=O)NC2(C)CCS(=O)(=O)CC2)C3)c(F)cn1` (single isomer, unassigned) [Example 53a], half-maximal inhibition (IC50) was put at 162 nM.

In turn, `CC(C)n1nc(-c2cccc(OC(F)F)c2)c2c1C[C@H](C(=O)NCc1cnoc1)CC2` [Example 63, (R)-3-(3-(difluoromethoxy)phenyl)-1-isopropyl-N-(isoxazol-4-ylmethyl)-4,5,6,7-tetrahydro-1H-indazole-6-carboxamide] returned an IC50 of 4560 nM.

In turn, `CC(C)n1nc(-c2cncc(C(=O)NC(C)(C)C)c2)c2c1C[C@H](C(=O)NC1(C)CS(=O)(=O)C1)CC2` [Example 95, (R)-3-(5-(tert-butylcarbamoyl)pyridin-3-yl)-1-isopropyl-N-(3-methyl-1,1-dioxidothietan-3-yl)-4,5,6,7-tetrahydro-1H-indazole-6-carboxamide] gave an IC50 greater than 10000 nM.

Consider `CC(C)n1nc(-c2cccc(OC(F)F)c2)c2c1C[C@H](C(=O)NC1(C)CCS(=O)(=O)CC1)CC2` [Example 31, (R)-3-(3-(difluoromethoxy)phenyl)-1-isopropyl-N-(4-methyl-1,1-dioxidotetrahydro-2H-thiopyran-4-yl)-4,5,6,7-tetrahydro-1H-indazole-6-carboxamide], for which the IC50 came out at 24.7 nM.

In turn, `C[C@]1(NC(=O)[C@@H]2Cc3c(c(-c4cccc(OC(F)F)c4)nn3C3CCOCC3)C(F)(F)C2)CCS(=O)(=O)C1` (single isomer, unassigned) [Example 117a] yielded an IC50 greater than 10000 nM.

`CC(c1nccs1)n1nc(-c2cc(OC(F)F)ccc2F)c2c1C[C@H](C(=O)NC1(C)CS(=O)(=O)C1)CC2` (stereo partly drawn) [Example 80, (6R)-3-(5-(difluoromethoxy)-2-fluorophenyl)-N-(3-methyl-1,1-dioxidothietan-3-yl)-1-(1-(thiazol-2-yl)ethyl)-4,5,6,7-tetrahydro-1H-indazole-6-carboxamide] returned an IC50 of 174 nM.

In the case of `Cn1nccc1-c1nn(-c2ccc(F)cn2)c2c1CC[C@@H](C(=O)N[C@@]1(C)CCS(=O)(=O)C1)C2` [Example 20, (R)-1-(5-fluoropyridin-2-yl)-N-((S)-3-methyl-1,1-dioxidotetrahydrothiophen-3-yl)-3-(1-methyl-1H-pyrazol-5-yl)-4,5,6,7-tetrahydro-1H-indazole-6-carboxamide], 8430 nM corresponded to half-maximal inhibition (IC50).

As for `CC(C)n1nc(-c2cccc(OCC(F)(F)F)c2)c2c1C[C@H](C(=O)N[C@@]1(C)CCS(=O)(=O)C1)CC2` [Example 35, (R)-1-isopropyl-N-((S)-3-methyl-1,1-dioxidotetrahydrothiophen-3-yl)-3-(3-(2,2,2-trifluoroethoxy)phenyl)-4,5,6,7-tetrahydro-1H-indazole-6-carboxamide], the IC50 was determined as 35.2 nM.

Take `CC(C)n1nc(-c2cccc(OC(F)F)c2)c2c1CC(C(=O)NC1(C)CC(F)(F)C1)CO2` (racemic) [Example 124, N-(3,3-difluoro-1-methylcyclobutyl)-3-(3-(difluoromethoxy)phenyl)-1-isopropyl-1,5,6,7-tetrahydropyrano[3,2-c]pyrazole-6-carboxamide]: the IC50 turned out to be 56.4 nM.

As for `O=C(N[C@@H]1CCC[C@H]1N1CCOCC1)C1CCc2c(-c3cccc(OC(F)F)c3)nn(-c3ccc(F)cn3)c2C1` (stereo partly drawn) [Example 16, 3-(3-(difluoromethoxy)phenyl)-1-(5-fluoropyridin-2-yl)-N-((1R,2R)-2-morpholinocyclopentyl)-4,5,6,7-tetrahydro-1H-indazole-6-carboxamide], the IC50 was determined as 66.9 nM.

In turn, `C[C@]1(NC(=O)[C@H]2CCc3c(-c4ccccc4Cl)nn(-c4ccc(F)cc4)c3C2)CCS(=O)(=O)C1` (single isomer, unassigned) [Example 1a] yielded an IC50 of 3900 nM.

In turn, `CC(C)n1nc(-c2cccc(OC(F)(F)C(F)F)c2)c2c1C[C@H](C(=O)NC1(C)CCS(=O)(=O)CC1)CC2` [Example 36, (R)-1-isopropyl-N-(4-methyl-1,1-dioxidotetrahydro-2H-thiopyran-4-yl)-3-(3-(1,1,2,2-tetrafluoroethoxy)phenyl)-4,5,6,7-tetrahydro-1H-indazole-6-carboxamide] had an IC50 of 353 nM.

The molecule `CC(C)n1nc(-c2cccc(CC#N)c2)c2c1C[C@H](C(=O)NC1(C)CS(=O)(=O)C1)CC2` [Example 94, (R)-3-(3-(cyanomethyl)phenyl)-1-isopropyl-N-(3-methyl-1,1-dioxidothietan-3-yl)-4,5,6,7-tetrahydro-1H-indazole-6-carboxamide] showed an IC50 greater than 10000 nM.

The molecule `CCOc1cc(-c2nn(C(C)C(C)(C)O)c3c2CC[C@@H](C(=O)N[C@@]2(C)CCS(=O)(=O)C2)C3)c(F)cn1` (single isomer, unassigned) [Example 108b] returned an IC50 of 172 nM.

In turn, `CC(n1nc(-c2cccc(OC(F)F)c2)c2c1C[C@H](C(=O)NC1(C)CCS(=O)(=O)CC1)CC2)C(C)(C)O` (single isomer, unassigned) [Example 111b] displayed an IC50 of 230 nM.

`CC(C)n1nc(-c2cc(OC(F)F)ccc2F)c2c1C[C@H](C(=O)NC1(C)CS(=O)(=O)C1)CC2` [Example 82, (R)-3-(5-(difluoromethoxy)-2-fluorophenyl)-1-isopropyl-N-(3-methyl-1,1-dioxidothietan-3-yl)-4,5,6,7-tetrahydro-1H-indazole-6-carboxamide] yielded an IC50 of 30.8 nM.

Regarding `CC(C(F)F)n1nc(-c2cc(OC(F)F)ccc2F)c2c1C[C@H](C(=O)NC1(C)CCS(=O)(=O)CC1)CC2` (single isomer, unassigned) [Example 49a], half-maximal inhibition (IC50) required 32.1 nM.

As to `CC1(NC(=O)[C@@H]2CCc3c(-c4cc(OC(F)F)ccc4F)nn(C4CCC4)c3C2)CS(=O)(=O)C1` [Example 57, (R)-1-cyclobutyl-3-(5-(difluoromethoxy)-2-fluorophenyl)-N-(3-methyl-1,1-dioxidothietan-3-yl)-4,5,6,7-tetrahydro-1H-indazole-6-carboxamide], the IC50 came out at 22.8 nM.

`CC(C)n1nc(-c2cc(OC(F)F)ncc2F)c2c1C[C@H](C(=O)NC1(C)CCS(=O)(=O)CC1)CC2` [Example 21, (R)-3-(2-(difluoromethoxy)-5-fluoropyridin-4-yl)-1-isopropyl-N-(4-methyl-1,1-dioxidotetrahydro-2H-thiopyran-4-yl)-4,5,6,7-tetrahydro-1H-indazole-6-carboxamide] came in with an IC50 of 43.8 nM.

`CCC1(NC(=O)[C@@H]2CCc3c(-c4cccc(OC(F)F)c4)nn(C(C)C)c3C2)CS(=O)(=O)C1` [Example 69, (R)-3-(3-(difluoromethoxy)phenyl)-N-(3-ethyl-1,1-dioxidothietan-3-yl)-1-isopropyl-4,5,6,7-tetrahydro-1H-indazole-6-carboxamide]: the IC50 was determined as 90 nM.

Molecule `CC(C)n1nc(-c2cc(OC3CC3)ncc2F)c2c1C[C@H](C(=O)NC1(C)CCS(=O)(=O)CC1)CC2` [Example 37, (R)-3-(2-cyclopropoxy-5-fluoropyridin-4-yl)-1-isopropyl-N-(4-methyl-1,1-dioxidotetrahydro-2H-thiopyran-4-yl)-4,5,6,7-tetrahydro-1H-indazole-6-carboxamide] returned an IC50 of 93.2 nM.

Turning to `CC1(NC(=O)[C@@H]2CCc3c(-c4cc(OC(F)F)ccc4F)nn(C4CCCC4O)c3C2)CS(=O)(=O)C1` (single isomer, unassigned) [Example 114d], the IC50 turned out to be 105 nM.

In the case of `CC(C(F)F)n1nc(-c2cc(OC(F)F)ccc2F)c2c1C[C@H](C(=O)NC1(C)CS(=O)(=O)C1)CC2` (single isomer, unassigned) [Example 48b], half-maximal inhibition (IC50) required 19.8 nM.

`CCOC(=O)N1CCC(C)(NC(=O)[C@@H]2CCc3c(-c4cc(OC(F)F)ccc4F)nn(C(C)C)c3C2)C1` (stereo partly drawn) [Example 59, ethyl 3-((R)-3-(5-(difluoromethoxy)-2-fluorophenyl)-1-isopropyl-4,5,6,7-tetrahydro-1H-indazole-6-carboxamido)-3-methylpyrrolidine-1-carboxylate] returned an IC50 of 61 nM.

With `[2H]C([2H])([2H])C([2H])(n1nc(-c2cc(OCC)ncc2F)c2c1C[C@H](C(=O)NC1(C)CCS(=O)(=O)CC1)CC2)C([2H])([2H])[2H]` [Example 47, (R)-3-(2-ethoxy-5-fluoropyridin-4-yl)-N-(4-methyl-1,1-dioxidotetrahydro-2H-thiopyran-4-yl)-1-(propan-2-yl-d7)-4,5,6,7-tetrahydro-1H-indazole-6-carboxamide], half-maximal inhibition (IC50) required 65.9 nM.

`CC(C)n1nc(-c2cc(OCC(F)(F)F)ncc2F)c2c1C[C@H](C(=O)N[C@@]1(C)CCS(=O)(=O)C1)CC2` [Example 44, (R)-3-(5-fluoro-2-(2,2,2-trifluoroethoxy)pyridin-4-yl)-1-isopropyl-N-((S)-3-methyl-1,1-dioxidotetrahydrothiophen-3-yl)-4,5,6,7-tetrahydro-1H-indazole-6-carboxamide] returned an IC50 of 5.3 nM.

The same experiment, now with this note: unit given as nm; hDGAT2 Sf-9 membrane prep; 13C18-triolein product by LC/MS/MS.
In turn, `CC1(NC(=O)C2COc3c(-c4cccc(OC(F)F)c4)nn(-c4ccc(F)cn4)c3C2)CCS(=O)(=O)C1` (stereo not drawn) [Example 118, 3-(3-(difluoromethoxy)phenyl)-1-(5-fluoropyridin-2-yl)-N-(3-methyl-1,1-dioxidotetrahydrothiophen-3-yl)-1,5,6,7-tetrahydropyrano[3,2-c]pyrazole-6-carboxamide] yielded an IC50 of 0.44 nM.

Values taken from patent US20240140938A1, “PREPARATION OF TETRAHYDROINDAZOLE DERIVATIVES AS NOVEL DIACYLGLYCERIDE O-ACYLTRANSFERASE 2 INHIBITORS” (MERCK SHARP & DOHME LLC, priority 2020, published 2024).
